In PubChem BioAssay (NCI) one finds GI50 and TGI data, which are given here for nine molecules.

What all share (test): NCI-60 cell line screen, 48 h
The subject of experiment [1] is HL-60(TB) leukemia.
In experiment [2] the test system is HOP-92 NSCLC.
Experiment [3] relates to NCI-H226 lung.
Experiment [4] deals with NCI-H460 lung.
Experiment [5] has as its system OVCAR-8 ovarian.
Experiment [6] has as its system SF-539 CNS.
The test system of experiment [7] is SR leukemia.
Experiment [8] concerns TK-10 renal.
Experiment [9] relates to U251 CNS.
In experiment [10] the test system is UACC-257 melanoma.

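Interpolation was linear, between the two tested concentrations surrounding the appropriate level; five concentrations were tested over 48 hours in 96-well plates. GI50 = concentration required for 50% inhibition of growth. The concentration for full growth arrest is given as TGI.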

With `O=C1/C(=C\c2ccccc2)CN(C(=O)c2ccccc2F)C/C1=C\c1ccccc1`, the GI50 in experiment [1] was 2.78 µM; in experiment [2], 3.18 µM; in experiment [3], 5.6 µM; in experiment [4], 2.67 µM; in [5] it was 2.67 µM; in experiment [6], 2 µM. For the same molecule, the GI50 in [7] was 0.407 µM; in [8] it was 2.33 µM; in experiment [9] it was 1.68 µM; in experiment [10], 2.15 µM. For the same molecule, the TGI in [1] turned out to be 7.36 µM; in experiment [2], 14.2 µM; in experiment [3] it was 21.5 µM; in [4] it was 7.35 µM; in [5] it was 7.9 µM; in experiment [6] it was 4.12 µM. For the same molecule, the TGI came out at 3.45 µM in [7], 5.75 µM in experiment [8], 3.26 µM in [9] and 4.79 µM in experiment [10].

Regarding `COc1ccc(C2=NN(c3ccc(S(N)(=O)=O)cc3)C(c3ccc(Cl)cc3)C2)c(O)c1` (stereo not given), the GI50 in experiment [1] is 1.86 µM; in experiment [2], 2.97 µM; in [3], 5.6 µM; in experiment [4], 2.31 µM; in experiment [5], 4.74 µM; in experiment [6] it was 10.1 µM. In addition, the GI50 in experiment [7] is 0.897 µM; in experiment [8], 2.49 µM; in experiment [9] it was 4.47 µM; in [10] it was 6.84 µM. Moreover, the TGI in experiment [1] was found to be 4.99 µM; in experiment [2], 15.6 µM; in [3], 19.3 µM; in experiment [4], 6.08 µM; in [5], 44.4 µM; in [6] it was 22.3 µM. Further, the TGI is 3.61 µM in [7], 9.02 µM in experiment [8], 21.2 µM in experiment [9] and 42 µM in [10].

On to `C/C(=N\NC(=S)Nc1ccccc1)c1ccccn1`, for which the GI50 was less than 0.0114 µM in experiment [1]; less than 0.0162 µM in [2]; 0.217 µM in experiment [3]; 0.0692 µM in experiment [4]; less than 0.0169 µM in [5]; 0.581 µM in experiment [6]. Also, the GI50 was 0.0703 µM in [7], 1.02 µM in experiment [8], 0.0366 µM in [9] and 0.032 µM in experiment [10]. Besides, the TGI in experiment [1] was 0.0781 µM; in experiment [2], 0.607 µM; in [3] it was 2.13 µM; in experiment [4], 3.74 µM; in [5], 2.54 µM; in experiment [6], 7.24 µM. The TGI in experiment [7] came to 11.3 µM; in experiment [8], 3.77 µM; in experiment [9], 2.39 µM; in [10] it was 0.384 µM.

`CCN1CCC(O)(c2ccccc2)C(C(=O)c2ccccc2)C1` (stereo not given): the TGI in [1] is 46.8 µM; in experiment [2], 36.1 µM; in [3], 99.2 µM; in experiment [4] it was greater than 100 µM; in experiment [5], 63.7 µM; in experiment [6], greater than 100 µM. Further, the TGI in [7] was 60.3 µM; in [8] it was 47.3 µM; in experiment [9] it was greater than 100 µM; in [10] it was 46.5 µM.

With `O=C1NCC2=C1CCC1c3ccccc3CCN21` (stereo not given), the TGI in [1], in experiment [2], in [3], in [4], in [5] and in [6] was greater than 100 µM in each case. Further, the TGI in experiment [7], in [8], in experiment [9] and in experiment [10] was greater than 100 µM each time.

On to `NCCCNCCCNc1nc2ccccc2c2[nH]c3ccccc3c12`, for which the GI50 was 0.0375 µM in experiment [1]; 0.173 µM in experiment [2]; 0.125 µM in [3]; 0.0399 µM in [4]; 0.0346 µM in experiment [5]; 0.156 µM in experiment [6]. The GI50 in [7] was 0.0059 µM; in [8], 1.1 µM; in experiment [9] it was 0.0938 µM; in experiment [10] it was 2.31 µM. Besides, the TGI came to 1.3 µM in experiment [1]; 0.747 µM in experiment [2]; 1.6 µM in [3]; 1.74 µM in experiment [4]; 4.3 µM in [5]; 1.55 µM in [6]. For the same molecule, the TGI was found to be 1.17 µM in experiment [7], 3.68 µM in [8], 1.32 µM in experiment [9] and 6.2 µM in experiment [10].

Consider `c1ccc(COc2ccc(Nc3ncnc4ccc(-c5ccco5)cc34)cc2)cc1`, for which the GI50 in experiment [1] is 7.03 µM; in experiment [2], 0.379 µM; in experiment [3], 5.73 µM; in experiment [4], 2.84 µM; in [5], 11.3 µM; in [6], 8.83 µM. In addition, the GI50 in experiment [7] was 6.7 µM; in [8], 3.26 µM; in experiment [9] it was 6.99 µM; in experiment [10] it was 7.85 µM. For the same molecule, the TGI in experiment [1] was 19.2 µM; in experiment [2] it was 7.21 µM; in [3], greater than 21.5 µM; in [4], greater than 25 µM; in experiment [5] it was greater than 25 µM; in [6] it was greater than 25 µM. For the same molecule, the TGI is greater than 25 µM in experiment [7], 16.3 µM in experiment [8], greater than 25 µM in experiment [9] and 24.4 µM in experiment [10].

Take `CC1(C)OCC(C2OC(On3nnc4ccc(Cl)cc43)C3OC(C)(C)OC23)O1` (stereo not given): the TGI in [1], in experiment [2], in [3], in experiment [4], in experiment [5] and in experiment [6] was greater than 100 µM in each case. The TGI in experiment [7], in [8], in experiment [9] and in experiment [10] was greater than 100 µM throughout.

As for `COc1cc2c(cc1OCCCN1CCN(CCCOc3cc4c(cc3OC)C(=O)C3CCC[C@H]3C=N4)CC1)N=C[C@@H]1CCCC1C2=O` (stereo not given in full), the GI50 was 1.51 µM in experiment [1]; 0.597 µM in [2]; 13.2 µM in [3]; 4.45 µM in experiment [4]; 11.6 µM in experiment [5]; 0.614 µM in experiment [6]. In addition, the GI50 in experiment [7] was 0.367 µM; in experiment [8], 7.9 µM; in [9] it was 4.91 µM; in [10], 13 µM. Moreover, the TGI in [1] was 4.1 µM; in [2], greater than 61.4 µM; in experiment [3] it was greater than 100 µM; in experiment [4], greater than 69.9 µM; in experiment [5], greater than 52.3 µM; in experiment [6], 16.4 µM. Besides, the TGI in [7] was greater than 100 µM; in experiment [8] it was greater than 100 µM; in experiment [9], greater than 100 µM; in experiment [10] it was greater than 46.4 µM.
